Measured values as given in paper PMC6277434, “Discovery of a potent HMG-CoA reductase degrader that eliminates statin-induced reductase accumulation and lowers cholesterol” (Nature Communications, 2018).

Key:
LXR signaling pathway = experiment: RT-qPCR of LXR target genes (SREBP-1c, ABCA1, ABCG8) in Huh-7 cells; assay type: cell-based, human; settings: 16 h
Experimental: Cells were treated as described in corresponding figure legends, then total RNA was extracted from cells or mouse livers using TRI Reagent (T9424, Sigma-Aldrich). Equal amounts of RNA from cells or mice receiving the same treatment were pooled were used for cDNA synthesis with oligo dT and reverse transcriptase MLV (Promega). Gene expression was analyzed by quantitative real-time PCR on a Stratagene Mx30005PTM Q-PCR Systems. The primers used were listed in Supplementary Tables 2–4. […]
pathway. a-c Huh-7 cells were treated with indicated compounds for 16 h and then harvested for total RNA isolation and RT-qPCR. Cells treated with LXR agonist T0901317 w ere used as positive controls. The relative mRNA levels of SREBP -1c (a), ABCA1 (b) and ABCG8 (c) were quantified . GAPDH was the reference gene. The relative mRNA level in DMSO-treated cells was defined as 1. Data are from 3 independent experiments and presented as mean ± SD.
(1 picture or pasted object on this page, not shown here)

HMGCR = biological target: T1, HMGCR (Cricetulus griseus, UniProt P00347); experiment: HMGCR ubiquitination assay in CHO-7 cells; assay type: cell-based, Chinese hamster
T1 construct: endogenous in cells; host or cells: CHO-7, CHG, SRD-13A, SRD-15
T1 sequence (P00347 1-887): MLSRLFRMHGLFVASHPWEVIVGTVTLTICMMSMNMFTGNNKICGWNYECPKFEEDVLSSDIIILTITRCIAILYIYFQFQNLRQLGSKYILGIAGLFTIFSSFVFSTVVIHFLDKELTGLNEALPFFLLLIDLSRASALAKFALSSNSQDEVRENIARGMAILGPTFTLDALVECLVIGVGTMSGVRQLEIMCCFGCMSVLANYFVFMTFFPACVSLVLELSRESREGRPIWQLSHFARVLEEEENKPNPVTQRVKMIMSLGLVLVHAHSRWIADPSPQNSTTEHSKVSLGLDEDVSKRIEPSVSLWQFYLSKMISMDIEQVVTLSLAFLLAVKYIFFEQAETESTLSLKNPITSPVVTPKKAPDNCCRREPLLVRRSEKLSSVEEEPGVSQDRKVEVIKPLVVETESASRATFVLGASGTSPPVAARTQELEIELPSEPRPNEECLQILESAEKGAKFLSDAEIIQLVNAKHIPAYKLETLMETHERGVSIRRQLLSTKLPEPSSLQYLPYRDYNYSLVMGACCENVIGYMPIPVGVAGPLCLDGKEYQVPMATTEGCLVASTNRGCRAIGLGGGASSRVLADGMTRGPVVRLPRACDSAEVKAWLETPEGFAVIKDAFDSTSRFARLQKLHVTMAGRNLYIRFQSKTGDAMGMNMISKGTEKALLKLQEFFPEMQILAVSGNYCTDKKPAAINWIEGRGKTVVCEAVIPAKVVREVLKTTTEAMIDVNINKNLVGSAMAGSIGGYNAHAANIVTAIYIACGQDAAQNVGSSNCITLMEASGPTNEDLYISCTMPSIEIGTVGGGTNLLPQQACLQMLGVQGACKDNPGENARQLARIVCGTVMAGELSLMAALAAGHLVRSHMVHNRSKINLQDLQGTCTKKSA
Experimental: To detect endogenous HMGCR ubiquitination, CHO-7 cells were treated as described in figure legends. Two 10-cm dishes of cells were harvested and lysed in 600 μl of immunoprecipitation buffer (1× PBS, 1% Triton X-100, 5 mM EDTA, 5 mM EGTA) supplemented with protease inhibitor cocktail, 0.1 mM Leupeptin, 10 μM MG-132, and 10mM N-ethylmaleimide. Lysates were pre-cleared with 3 μg of normal rabbit IgG (D110502, Sangon) and 40 μl of protein A/G plus-agarose (sc-2003, Santa Cruz Biotechnology) for 1 h at 4 °C, followed by immunoprecipitation with 10 μg of rabbit polyclonal anti-HMGCR and 100 μl of protein A/G plus-agarose overnight at 4 °C. After washing with immunoprecipitation buffer containing protease inhibitor cocktail for three times, immunoprecipitates were eluted with 2× loading buffer (75 mM Tris-HCl, pH 6.8, 50 mM NaCl, 6% SDS, 15% glycerol, and 0.02% bromophenol blue) at 95 °C for 10 min. Supernatants were then mixed with equal volume of membrane protein solubilization buffer and incubated at 37 °C for 30 min. Samples were finally subjected to immunoblotting as described above.
To assay for the ubiquitination of overexpressed HMGCR protein, cells were first transfected with indicated plasmids. A similar protocol was employed except that lysates were immunoprecipitated with 40 μl of anti-Flag M2 affinity gel (A2220, Sigma-Aldrich).

Hmgcr mRNA = experiment: RT-qPCR of Hmgcr mRNA in SRD-13A cells; assay type: cell-based, Chinese hamster; design: HMGCR mRNA level, mean: scale not given here; settings: for HMGCR mRNA level, mean: SRD-13A, 16 h
Experimental: Cells were treated as described in corresponding figure legends, then total RNA was extracted from cells or mouse livers using TRI Reagent (T9424, Sigma-Aldrich). Equal amounts of RNA from cells or mice receiving the same treatment were pooled were used for cDNA synthesis with oligo dT and reverse transcriptase MLV (Promega). Gene expression was analyzed by quantitative real-time PCR on a Stratagene Mx30005PTM Q-PCR Systems. The primers used were listed in Supplementary Tables 2–4.

SMILES | expression of LXR target genes (SREBP-1c, ABCA1 and ABCG8) mRNA (LXR signaling pathway) | ubiquitination of endogenous HMGCR (HMGCR; CHO-7, with 10 μM MG-132, 3 h) | ubiquitination of transfected HMGCR (HMGCR; cells co-expressing wild-type HMGCR and Insig-1) | change in the amounts of Hmgcr mRNA (Hmgcr mRNA; SRD-13A cells, lovastatin 16 h) | HMGCR mRNA level, mean (Hmgcr mRNA; lovastatin 0.001 uM) | HMGCR mRNA level, mean (Hmgcr mRNA; lovastatin 0.003 uM) | HMGCR mRNA level, mean (Hmgcr mRNA; lovastatin 0.01 uM) | HMGCR mRNA level, mean (Hmgcr mRNA; lovastatin 0.03 uM) | HMGCR mRNA level, mean (Hmgcr mRNA; lovastatin 0.1 uM) | HMGCR mRNA level, mean (Hmgcr mRNA; lovastatin 0.3 uM) | HMGCR mRNA level, mean (Hmgcr mRNA; lovastatin 1 uM) | HMGCR mRNA level, mean (Hmgcr mRNA; lovastatin 3 uM) | HMGCR mRNA level, mean (Hmgcr mRNA; lovastatin 10 uM)
C=CCC(O)(CC=C)CCCC(C)C1CCC2C3C(O)C=C4C(C)(C)C(O)CCC4(C)C3CCC12C (stereo not shown) [Cmpd 81] | did not induce the expression | dose-dependent increase | markedly increase | – | – | – | – | – | – | – | – | – | –
CC[C@H](C)C(=O)O[C@H]1C[C@@H](C)C=C2C=C[C@H](C)[C@H](CC[C@@H]3C[C@@H](O)CC(=O)O3)[C@H]21 [Lovastatin, lovastatin] | – | – | – | no change | 1 | 1.03 | 1.0471 | 1.185 | 1.052 | 0.9958 | 1.197 | 1.009 | 1.04
